The source of these data is BindingDB's records for doi:10.7270/Q2H70D5W (University of Pittsburgh, 2007).

Molecules are shown by their SMILES.

This test has as its target Gag-Pol polyprotein (Human immunodeficiency virus type 1 group M subtype B (isolate HXB2), UniProt P04585). The test is described as follows: concentration-response of HIV-1 RNase H blockers – biochemical, probe assessment, dose response (AID 652). As to conditions: pH 8; 23 °C.
In turn, `Cc1nn(CCc2nc(-c3ccco3)cs2)c2nc(O)cc(C(F)(F)F)c12` [SMR000060922] registered an IC50 of 1.97 µM.

As to `COc1ccc(-n2c(SCC(=O)N3CCCC3)nc3c([nH]c4ccccc43)c2=O)cc1` [SMR000018494], half-maximal inhibition (IC50) was put at 16.6 µM.

The compound `CC(C)c1nnc(NC(=O)c2c(O)n3c4c(cccc4c2=O)CCC3)s1` [1-Hydroxy-3-oxo-6,7-dihydro-3H,5H-pyrido[3,2,1-ij]quinoline-2-carboxylic acid (5-isopropyl-[1,3,4]thiadiazol-2-yl)-amide] yielded a concentration for half-maximal inhibition (IC50) of 14.9 µM.

For `O=C(Nc1nc(-c2ccncc2)cs1)c1ccco1` [MLS000053154], 5.64 µM corresponded to half-maximal inhibition (IC50).

As to `Cc1ccc(-n2nc(C)c3c2NC(=O)CSC3c2ccc3c(c2)OCO3)cc1` (stereo unspecified) [4-(1,3-benzodioxol-5-yl)-3-methyl-1-(4-methylphenyl)-2,4-dihydropyrazolo[3,4-e][1,4]thiazepin-7-one], the IC50 was found to be 5.2 µM.

With `COc1ccc(N2CCN(Cc3cc(=O)oc4cc(C)c(Cl)c(C)c34)CC2)cc1` [6-chloranyl-4-[[4-(4-methoxyphenyl)piperazin-1-yl]methyl]-5,7-dimethyl-chromen-2-one], the 50% inhibitory concentration (IC50) stood at 3.86 µM.

`Cc1ccc(-c2cc(C(=O)NC3=NCCS3)c3cc(Br)ccc3n2)o1` [6-bromanyl-N-(4,5-dihydro-1,3-thiazol-2-yl)-2-(5-methylfuran-2-yl)quinoline-4-carboxamide] returned an IC50 of 0.175 µM.

The compound `c1ccc(Cc2nn3c(COc4ccccc4)nnc3s2)cc1` [3-(phenoxymethyl)-6-(phenylmethyl)-[1,2,4]triazolo[3,4-b][1,3,4]thiadiazole] registered a concentration for half-maximal inhibition (IC50) of 1.36 µM.

Turning to `CC(=O)c1cccc(NC(=O)c2cc(-c3ccc(C)cc3)on2)c1` [MLS000050755], half-maximal inhibition (IC50) required 13.3 µM.

`CN(C)c1cccc(C(=O)Nc2cccc(F)c2)c1` [3-(dimethylamino)-N-(3-fluorophenyl)benzamide] yielded a 50% inhibitory concentration (IC50) of 12.2 µM.

`Cc1cc(C)c2c(=O)n(CC(=O)NCCCN3CCOCC3)sc2n1` [2-(3-keto-4,6-dimethyl-isothiazolo[5,4-b]pyridin-2-yl)-N-(3-morpholinopropyl)acetamide] registered an IC50 of 9.4 µM.

`CCOC(=O)c1c(N)sn(-c2ccccc2C)c1=S` [5-amino-2-(2-methylphenyl)-3-sulfanylidene-4-isothiazolecarboxylic acid ethyl ester]: the half-inhibitory concentration (IC50) is 2.28 µM.

Take `Cc1sc2nc(C(C)Nc3ccccc3N3CCOCC3)[nH]c(=O)c2c1C` (stereo unspecified) [5,6-dimethyl-2-[1-[2-(4-morpholinyl)anilino]ethyl]-3H-thieno[2,3-d]pyrimidin-4-one]: half-maximal inhibition (IC50) was put at 14.4 µM.

Take `c1ccc2[nH]c(SN3CCOCC3)nc2c1`: the half-maximal inhibitory concentration (IC50) is 12.5 µM.

The compound `CC(Cc1ccc(O)c(O)c1)C(C)Cc1ccc(O)c(O)c1` (stereo unspecified) [LOX inhibitor, N/A] showed a concentration for half-maximal inhibition (IC50) of 0.664 µM.

Take `COc1ccc(OC)c(CCNC(=O)Cn2sc3nc(C)cc(C)c3c2=O)c1` [MLS000118887]: inhibition was half-maximal at 3.08 µM (IC50).

With `CCCN(CCC)S(=O)(=O)c1ccc(C(=O)Nc2nnc(-c3cccc(OC)c3)o2)cc1` [4-(dipropylsulfamoyl)-N-[5-(3-methoxyphenyl)-1,3,4-oxadiazol-2-yl]benzamide], the IC50 is 21.2 µM.

`COc1ccc(N2CSC3=C(C#N)C(c4ccc(OC)c(OC)c4)CC(=O)N3C2)c(OC)c1` (stereo unspecified) [3-(2,4-dimethoxyphenyl)-8-(3,4-dimethoxyphenyl)-6-oxidanylidene-2,4,7,8-tetrahydropyrido[2,1-b][1,3,5]thiadiazine-9-carbonitrile] had an IC50 of 17.8 µM.

`COCCn1c(-c2ccc(-c3ccccc3Cl)o2)nc2c1c(=O)[nH]c(=O)n2CC(C)C` registered an IC50 of 4.55 µM.

Take `CC(C)C1N=C2c3ccccc3N=C(SCC(=O)c3ccc(O)c(O)c3)N2C1=O` (stereo unspecified) [MLS000094866]: the IC50 was 0.59 µM.

As to `CN1CSC2=C(C#N)C(c3cccc(OCc4ccccc4)c3)CC(=O)N2C1` (stereo unspecified), the half-inhibitory concentration (IC50) was found to be 10.6 µM.

The compound `CC(C)Sc1nc2sc3c(c2c2nnc(SCC(=O)NCc4ccco4)n12)CCCC3` [MLS000082957] yielded an IC50 of 3.01 µM.

The compound `Cc1sc2nc(SCC(=O)NCc3ccco3)n(CCc3ccccc3)c(=O)c2c1C` [2-(5,6-Dimethyl-4-oxo-3-phenethyl-3,4-dihydro-thieno[2,3-d]pyrimidin-2-ylsulfanyl)-N-furan-2-ylmethyl-acetamide] returned a 50% inhibitory concentration (IC50) of 3.86 µM.

`Nc1c(C(=O)N2CCCCC2)sc(=S)n1-c1ccccc1` [(4-amino-3-phenyl-2-sulfanylidene-1,3-thiazol-5-yl)-piperidin-1-ylmethanone] returned an IC50 of 1.85 µM.

The compound `Cc1ccc(Cn2c(SCC(C)C)nc3c2c(=O)[nH]c(=O)n3C)cc1` [3-methyl-7-[(4-methylphenyl)methyl]-8-(2-methylpropylthio)purine-2,6-dione] gave an IC50 of 1.71 µM.

Compound `CCOC(=O)c1sc(NC(=O)CSc2nnc(Cc3ccccc3)o2)c(C#N)c1C` [4-cyano-3-methyl-5-[[1-oxo-2-[[5-(phenylmethyl)-1,3,4-oxadiazol-2-yl]thio]ethyl]amino]-2-thiophenecarboxylic acid ethyl ester] showed an IC50 of 0.094 µM.

`CC(C)c1ccc2oc(-c3ccc(NC(=O)c4nnc[nH]4)cc3)nc2c1` showed an IC50 of 5.64 µM.

In turn, `N#Cc1cc(-c2ccccc2)nn1-c1ccccc1` returned an IC50 of 0.876 µM.

Turning to `CCOC(=O)c1c(NC(=O)c2ccc(-n3cnnn3)cc2)sc2c1CCCC2` [2-[[4-(tetrazol-1-yl)benzoyl]amino]-4,5,6,7-tetrahydrobenzothiophene-3-carboxylic acid ethyl ester], the concentration for half-maximal inhibition (IC50) worked out at 2.81 µM.

`Cc1nn(CCC#N)c2c1P(=S)(N1CCCC1)OC(c1ccc(F)cc1)=N2` (stereo unspecified) [3-[3-(4-fluorophenyl)-7-methyl-1-(1-pyrrolidinyl)-1-sulfanylidene-5-pyrazolo[4,3-c][1,5,2]oxazaphosphorinyl]propanenitrile]: the half-inhibitory concentration (IC50) was determined as 0.879 µM.

As to `CCOC(=O)c1c(C)[nH]c(C(=O)CSc2nc3ccccc3o2)c1C` [ethyl 5-[2-(1,3-benzoxazol-2-ylsulfanyl)ethanoyl]-2,4-dimethyl-1H-pyrrole-3-carboxylate], the concentration for half-maximal inhibition (IC50) was 7.6 µM.

For the compound `O=S(=O)(NS1=CC=CCN1S(=O)(=O)c1ccccc1)c1ccccc1` (stereo unspecified) [MLS000081951], it took 4.33 µM to reach half-maximal inhibition (IC50).

In turn, `Nc1sc2c(c1C(=O)NC1CCS(=O)(=O)C1)CCC2` (stereo unspecified) [2-Amino-5,6-dihydro-4H-cyclopenta[b]thiophene-3-carboxylic acid (1,1-dioxo-tetrahydro-1lambda*6*-thiophen-3-yl)-amide] gave an IC50 of 26.8 µM.

Compound `Nc1ccc(-c2nnc(-c3ccc(-c4ccccc4)cc3)o2)cc1` [4-[5-(4-phenylphenyl)-1,3,4-oxadiazol-2-yl]aniline] came in with an IC50 of 2.71 µM.

For `Cc1noc(C)c1CSc1nc2cc(S(=O)(=O)N3CCOCC3)ccc2o1` [2-[(3,5-dimethyl-1,2-oxazol-4-yl)methylsulfanyl]-5-morpholin-4-ylsulfonyl-1,3-benzoxazole], it took 2.3 µM to reach half-maximal inhibition (IC50).

Compound `CCCCCC#CCC#CCC#CCC#CCCCC(=O)O` came in with an IC50 of 0.794 µM.

Turning to `COc1ccccc1N1CSC2=C(C#N)C(c3ccc(SC)cc3)CC(=O)N2C1` (stereo unspecified) [3-(2-methoxyphenyl)-8-(4-methylsulfanylphenyl)-6-oxidanylidene-2,4,7,8-tetrahydropyrido[2,1-b][1,3,5]thiadiazine-9-carbonitrile], the IC50 turned out to be 2.59 µM.

As for `c1ccc(Cc2nnc3sc(-c4ccncc4)nn23)cc1` [3-(phenylmethyl)-6-pyridin-4-yl-[1,2,4]triazolo[3,4-b][1,3,4]thiadiazole], the half-maximal inhibitory concentration (IC50) is 1.81 µM.

Regarding `Fc1ccc(-c2ccc(-c3nn4c(-c5ccco5)nnc4s3)o2)cc1` [6-[5-(4-fluorophenyl)-2-furanyl]-3-(2-furanyl)-[1,2,4]triazolo[3,4-b][1,3,4]thiadiazole], half-maximal inhibition (IC50) required 8.95 µM.

For the compound `O=C(COc1ccc(Br)cc1)Nc1ccc(-c2nnc(-c3ccco3)o2)cc1` [2-(4-bromanylphenoxy)-N-[4-[5-(furan-2-yl)-1,3,4-oxadiazol-2-yl]phenyl]ethanamide], half-maximal inhibition (IC50) required 6.33 µM.

Compound `Cc1cccc(-c2nsc(SCC(=O)Nc3nccs3)n2)c1` [2-[[3-(3-methylphenyl)-1,2,4-thiadiazol-5-yl]sulfanyl]-N-(1,3-thiazol-2-yl)acetamide] came in with an IC50 of 3.81 µM.

Turning to `O=C(CCN1C(=O)c2ccccc2C1=O)Nc1ccc(-c2nc3ccccc3o2)cc1` [MLS000051238], half-maximal inhibition (IC50) required 5.8 µM.

`C=CCOc1ccc(CC2C(=O)N(C)C(=O)N(C)C2=O)cc1` [1,3-dimethyl-5-[(4-prop-2-enoxyphenyl)methyl]-1,3-diazinane-2,4,6-trione] came in with a concentration for half-maximal inhibition (IC50) of 2.61 µM.

`Cc1ccc(-n2c(N)c(C(=O)N3CCCCC3)sc2=S)cc1` [4-amino-3-(4-methylphenyl)-5-(1-piperidinylcarbonyl)-1,3-thiazole-2(3H)-thione]: the IC50 was found to be 2.3 µM.

The compound `O=C(NCCc1ccccc1)c1c(O)n2c3c(cccc3c1=O)CC2` [6-Hydroxy-4-oxo-1,2-dihydro-4H-pyrrolo[3,2,1-ij]quinoline-5-carboxylic acid phenethyl-amide] gave a concentration for half-maximal inhibition (IC50) of 9.94 µM.

For the compound `CC(C)CN(C(=O)COC(=O)c1ccc2c(c1)NC(=O)CS2)C1CCS(=O)(=O)C1` (stereo unspecified) [3-keto-4H-1,4-benzothiazine-6-carboxylic acid [2-[(1,1-diketothiolan-3-yl)-isobutyl-amino]-2-keto-ethyl] ester], the IC50 turned out to be 30.3 µM.

In turn, `O=C(c1ccccc1F)N1CCN(S(=O)(=O)c2ccc(S(=O)(=O)N3CCCCC3)cc2)CC1` [(2-Fluoro-phenyl)-{4-[4-(piperidine-1-sulfonyl)-benzenesulfonyl]-piperazin-1-yl}-methanone] displayed an IC50 of 44 µM.

The compound `Cc1ccc2c(c1C)NC(C(=O)O)C1CC=CC21` (stereo unspecified) registered a 50% inhibitory concentration (IC50) of 1.03 µM.

In turn, `CC(C)Cn1c(SCC(=O)NC(=O)Nc2ccc3c(c2)OCCO3)nc2ccccc2c1=O` [MLS000057544] came in with an IC50 of 4.47 µM.

`N#Cc1c(SCC(=O)Nc2nccs2)nc2c(c1-c1ccco1)CCCC2` [2-[[3-cyano-4-(2-furanyl)-5,6,7,8-tetrahydroquinolin-2-yl]thio]-N-(2-thiazolyl)acetamide]: half-maximal inhibition (IC50) required 4.3 µM.

`COc1cccc(-c2nnc(NC(=O)c3ccc(S(=O)(=O)N(CC(C)C)CC(C)C)cc3)o2)c1` [4-(diisobutylsulfamoyl)-N-[5-(3-methoxyphenyl)-1,3,4-oxadiazol-2-yl]benzamide] returned a half-maximal inhibitory concentration (IC50) of 4.77 µM.

The IC50 is the concentration that inhibits the measured activity by half.
